According to patent US7268224B2, “Human glucocorticoid receptor 1A promoter and splice variants” (Board of Supervisors of Louisianna State University and …, priority 2000, dated 2007):

B1: interferon-γ: interferon used to treat Jurkat cells (protein, UniProt P01579 24-161, looked up)
Interferon gamma: QDPYVKEAENLKKYFNAGHSDVADNGTLFLGILKNWKEESDRKIMQSQIVSFYFKLFKNFKDDQSIQKSVETIKEDMNVKFFNSNKKKRDDFEKLTNYSVTDLNVQRKAIHELIQVMAELSPAAKTGKRKRSQMLFRG

What was measured:
[1] = system: hormone-resistant clones of human CEM-C7, T-ALL cells, or mouse SAK8 T-lymphoma cells; settings: hormone-resistant clones in culture; cited from earlier work
[2] = system: GR 1A3 exon-containing transcripts in CEM-C7 cells; assay: Northern blot of GR exon 1A transcripts after glucocorticoid treatment; assay type: cell-based, human; settings: 1 μM, data not shown
Text: Glucocorticoid hormone treatment is known to up-regulate the levels of both GR mRNA and GR protein in immature T-lymphocytes and in some T-lymphoblasts that undergo apoptosis following hormone treatment. See Denton et al., (1993); and L. P. Eisen et al., “Positive Regulation of the Glucocorticoid Receptor in Human T-Cells Sensitive to the Cytolytic Effects of Glucocorticoids,” J. Biol. Chem., vol. 263, pp. 12044-12048 (1988). The human CEM-C7 acute lymphoblastic leukemia (ALL) cell line has served as a model system for glucocorticoid-sensitive human T-cell ALL. See M. R. Norman and E. B. Thompson, “Characterization of a Glucocorticoid-Sensitive Human Lymphoid Cell Line,” Cancer Res., vol. 37, pp. 3785-3791 (1977). CEM-C7 cells were treated with 1 μM dexamethasone (a glucocorticoid analogue) for various periods of time, from 6 hr to 48 hr. RNA was then extracted, and northern blots were prepared and probed with the GR-1A-exon-specific probes (exon 1A1, exon 1A2, and exon 1A3; Table 1). […] Up-regulation of exon 1A1 and exon 1A2 transcripts was also observed (data not shown).

[3] = system: GR exon 1 transcripts in CEM-C7 cells; assay: RT-PCR of GR exon 1 transcripts after hormone treatment, CEM-C7; settings: 1 μM
[4] = system: IRF-1 and IRF-2 protein levels in Jurkat cells; assay: IRF protein levels in interferon-treated Jurkat cells; assay type: cell-based, human; settings: data not shown
Text: By identifying transcription factor binding sites in the 1A promoter and exon, we will determine whether activation of any of these factors will directly activate the hGR 1A promoter. […] See H. Harada et al., “Structurally Similar but Functionally Distinct Factors, IRF-1 and IRF-2, Bind to the Same Regulatory Elements of IFN and IFN-Inducible Genes,” Cell, vol. 58, pp. 729-739 (1989).

exon 1A1 and exon 1A2 transcripts [2] | Molecule | sensitivity to glucocorticoid-mediated killing [1] | increase in exon 1A3-containing transcripts [3] | IRF-1 protein levels [4] | IRF-2 protein levels [4]
 | Nc1ncn([C@@H]2O[C@H](CO)[C@@H](O)[C@H]2O)c(=O)n1 [5-azacytidine] | become stably sensitive to glucocorticoid-mediated killing |  |  | 
Up-regulation | C[C@@H]1C[C@H]2[C@@H]3CCC4=CC(=O)C=C[C@]4(C)[C@@]3(F)[C@@H](O)C[C@]2(C)[C@@]1(O)C(=O)CO [dexamethasone] |  | 2.5 fold |  | 
 | interferon-α |  |  | dramatic increase | not IRF-2
 | B1 |  |  | dramatic increase | not IRF-2
